In the supplement of paper PMC10307832:

What was measured:
Test in all cases: relative viability (nuclei count vs DMSO), 5 days (fraction); higher = more cells survive
A-427 = system: A-427
Summary of the method: (§1)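 Dosing by pin tool came one day after lung cancer cell lines were seeded in 1536-well plates, using either one drug or a fixed anchor-drug dose plus five library-drug doses (not always all listed) in √10 steps. After 5 days, nuclei were counted on 4× images. Relative viability is treated-well nuclei count divided by vehicle-well nuclei count, and values are medians of duplicate plates.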

HCC-15 = system: HCC-15
Summary of the method: as §1

HCC-78 = system: HCC-78
Summary of the method: as §1

HOP-62 = system: HOP-62
Summary of the method: as §1

LC-2-ad = system: LC-2-ad
Summary of the method: as §1

LXF-289 = system: LXF-289
Summary of the method: as §1

NCI-H1734 = system: NCI-H1734
Summary of the method: as §1

NCI-H1755 = system: NCI-H1755
Summary of the method: as §1

NCI-H1792 = system: NCI-H1792
Summary of the method: as §1

NCI-H1915 = system: NCI-H1915
Summary of the method: as §1

Compound `CCN(CC)CCCCNc1ncc2cc(-c3cc(OC)cc(OC)c3)c(NC(=O)NC(C)(C)C)nc2n1` + CS(=O)(=O)N1CCN(Cc2cc3nc(-c4cccc5[nH]ncc45)nc(N4CCOCC4)c3s2)CC1 [Pictilisib] (partner 1 µM) has a relative viability (A-427; first compound 0.01 µM) of 0.704, a relative viability (A-427; first compound 0.03162 µM) of 0.657 and a relative viability (A-427; first compound 0.1 µM) of 0.769. The relative viability (A-427; first compound 0.3162 µM) was 0.671, the relative viability (A-427; first compound 1 µM) was 0.353 and the relative viability (HCC-15; first compound 0.01 µM) was 0.813. For the same compound, the relative viability (HCC-15; first compound 0.03162 µM) was 0.813, the relative viability (HCC-15; first compound 0.1 µM) was 0.766 and the relative viability (HCC-15; first compound 0.3162 µM) was 0.929. It also gave a relative viability (HCC-15; first compound 1 µM) of 0.715, a relative viability (HCC-78; first compound 0.03162 µM) of 0.189 and a relative viability (HCC-78; first compound 0.1 µM) of 0.224. For the same compound, the relative viability (HCC-78; first compound 0.3162 µM) was 0.218, the relative viability (HCC-78; first compound 1 µM) was 0.185 and the relative viability (HOP-62; first compound 0.01 µM) was 0.732. The relative viability (HOP-62; first compound 0.03162 µM) was 0.772, the relative viability (HOP-62; first compound 0.1 µM) was 0.582 and the relative viability (HOP-62; first compound 0.3162 µM) was 0.747. It also gave a relative viability (HOP-62; first compound 1 µM) of 0.985, a relative viability (LC-2-ad; first compound 0.01 µM) of 0.481 and a relative viability (LC-2-ad; first compound 0.03162 µM) of 0.449. It also gave a relative viability (LC-2-ad; first compound 0.1 µM) of 0.547, a relative viability (LC-2-ad; first compound 0.3162 µM) of 0.544 and a relative viability (LC-2-ad; first compound 1 µM) of 0.392. The relative viability (LXF-289; first compound 0.01 µM) was 0.769, the relative viability (LXF-289; first compound 0.03162 µM) was 0.874 and the relative viability (LXF-289; first compound 0.1 µM) was 0.792. It also gave a relative viability (LXF-289; first compound 0.3162 µM) of 0.676, a relative viability (LXF-289; first compound 1 µM) of 0.386 and a relative viability (NCI-H1734; first compound 0.01 µM) of 0.452. For the same compound, the relative viability (NCI-H1734; first compound 0.03162 µM) was 0.424, the relative viability (NCI-H1734; first compound 0.1 µM) was 0.54 and the relative viability (NCI-H1734; first compound 0.3162 µM) was 0.427. For the same compound, the relative viability (NCI-H1734; first compound 1 µM) was 0.395, the relative viability (NCI-H1755; first compound 0.01 µM) was 0.403 and the relative viability (NCI-H1755; first compound 0.03162 µM) was 0.386. For the same compound, the relative viability (NCI-H1755; first compound 0.1 µM) was 0.479, the relative viability (NCI-H1755; first compound 0.3162 µM) was 0.381 and the relative viability (NCI-H1755; first compound 1 µM) was 0.258. The relative viability (NCI-H1792; first compound 0.01 µM) was 0.249, the relative viability (NCI-H1792; first compound 0.03162 µM) was 0.282 and the relative viability (NCI-H1792; first compound 0.1 µM) was 0.241. It also gave a relative viability (NCI-H1792; first compound 0.3162 µM) of 0.265, a relative viability (NCI-H1792; first compound 1 µM) of 0.225 and a relative viability (NCI-H1915; first compound 0.01 µM) of 0.998. It also gave a relative viability (NCI-H1915; first compound 0.03162 µM) of 0.92, a relative viability (NCI-H1915; first compound 0.1 µM) of 0.93 and a relative viability (NCI-H1915; first compound 0.3162 µM) of 1.03. The relative viability (NCI-H1915; first compound 1 µM) was 0.915.
